Experimental data from ChEMBL document CHEMBL1201862, “PubChem BioAssay data set” (2004).
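Results reflect a 48-hour exposure of cells in 96-well plates to compound at five concentrations. At the GI50, growth is halved.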 Calls of active or inactive are those of the source. No stated cut-off is given here; in the data, active = GI50 up to about 1.1 µM and inactive = higher.

How the values were obtained:
Assay in all cases: NCI-60 cell line screen, 48 h
HOP-18 = tested on: HOP-18
SF-295 = tested on: SF-295
EKVX = tested on: EKVX
M19-MEL = tested on: M19-MEL
HOP-92 = tested on: HOP-92
NCI-H226 = tested on: NCI-H226
M14 = tested on: M14
NCI-H460 = tested on: NCI-H460
KM12 = tested on: KM12
XF498 = tested on: XF498
TK-10 = tested on: TK-10
SNB-75 = tested on: SNB-75
HOP-62 = tested on: HOP-62
NCI-H522 = tested on: NCI-H522
UACC-62 = tested on: UACC-62
U-251 = tested on: U-251
SF-268 = tested on: SF-268
UO-31 = tested on: UO-31
786-0 = tested on: 786-0
DMS-273 = tested on: DMS-273
SK-OV-3 = tested on: SK-OV-3
LXFL 529 = tested on: LXFL 529
KM-20L2 = tested on: KM-20L2
COLO 205 = tested on: COLO 205
A498 = tested on: A498
K562 = tested on: K562
DLD-1 = tested on: DLD-1
OVCAR-5 = tested on: OVCAR-5
RXF 631 = tested on: RXF 631
DMS-114 = tested on: DMS-114
SNB-78 = tested on: SNB-78
IGROV-1 = tested on: IGROV-1
CAKI-1 = tested on: CAKI-1
A549 = tested on: A549
RPMI-8226 = tested on: RPMI-8226
SK-MEL-5 = tested on: SK-MEL-5
SK-MEL-2 = tested on: SK-MEL-2
CCRF-CEM = tested on: CCRF-CEM
ACHN = tested on: ACHN
HT-29 = tested on: HT-29
OVCAR-4 = tested on: OVCAR-4
Malme-3M = tested on: Malme-3M
RXF 393 = tested on: RXF 393
SW-620 = tested on: SW-620
HL-60 = tested on: HL-60
OVCAR-3 = tested on: OVCAR-3
LOX IMVI = tested on: LOX IMVI
SF-539 = tested on: SF-539
SK-MEL-28 = tested on: SK-MEL-28
OVCAR-8 = tested on: OVCAR-8
UACC-257 = tested on: UACC-257
HCT-116 = tested on: HCT-116
SN12C = tested on: SN12C
HCT-15 = tested on: HCT-15
MDA-MB-435 = tested on: MDA-MB-435
MDA-MB-231 = tested on: MDA-MB-231
BT-549 = tested on: BT-549
NCI/ADR-RES = tested on: NCI/ADR-RES
DU-145 = tested on: DU-145
HCC 2998 = tested on: HCC 2998
SNB-19 = tested on: SNB-19
MOLT-4 = tested on: MOLT-4
MCF7 = tested on: MCF7
PC-3 = tested on: PC-3
MDA-N = tested on: MDA-N
SR = tested on: SR
NCI-H23 = tested on: NCI-H23

What does the source list for `Nc1cc[nH]c(=O)n1`?
GI50 (HOP-18): > 100000 nM (inactive); GI50 (SF-295): > 100000 nM (inactive); GI50 (EKVX): > 100000 nM (inactive); GI50 (M19-MEL): > 100000 nM (inactive); GI50 (HOP-92): > 100000 nM (inactive); GI50 (NCI-H226): > 100000 nM (inactive); GI50 (M14): > 100000 nM (inactive); GI50 (NCI-H460): > 100000 nM (inactive); GI50 (KM12): > 100000 nM (inactive); GI50 (XF498): > 100000 nM (inactive); GI50 (TK-10): > 100000 nM (inactive); GI50 (SNB-75): > 100000 nM (inactive); GI50 (HOP-62): > 100000 nM (inactive); GI50 (NCI-H522): > 100000 nM (inactive); GI50 (UACC-62): > 100000 nM (inactive); GI50 (U-251): > 100000 nM (inactive); GI50 (SF-268): > 100000 nM (inactive); GI50 (UO-31): > 100000 nM (inactive); GI50 (786-0): > 100000 nM (inactive); GI50 (DMS-273): > 100000 nM (inactive); GI50 (SK-OV-3): > 100000 nM (inactive); GI50 (LXFL 529): > 100000 nM (inactive); GI50 (KM-20L2): > 100000 nM (inactive); GI50 (COLO 205): > 100000 nM (inactive); GI50 (A498): > 100000 nM (inactive); GI50 (K562): > 100000 nM (inactive); GI50 (DLD-1): > 100000 nM (inactive); GI50 (OVCAR-5): > 100000 nM (inactive); GI50 (RXF 631): > 100000 nM (inactive); GI50 (DMS-114): > 100000 nM (inactive); GI50 (SNB-78): > 100000 nM (inactive); GI50 (IGROV-1): > 100000 nM (inactive); GI50 (CAKI-1): > 100000 nM (inactive); GI50 (A549): > 100000 nM (inactive); GI50 (RPMI-8226): > 100000 nM (inactive); GI50 (SK-MEL-5): > 100000 nM (inactive); GI50 (SK-MEL-2): > 100000 nM (inactive); GI50 (CCRF-CEM): > 100000 nM (inactive); GI50 (ACHN): > 100000 nM (inactive); GI50 (HT-29): > 100000 nM (inactive); GI50 (OVCAR-4): > 100000 nM (inactive); GI50 (Malme-3M): > 100000 nM (inactive); GI50 (RXF 393): > 100000 nM (inactive); GI50 (SW-620): > 100000 nM (inactive); GI50 (HL-60): > 100000 nM (inactive); GI50 (OVCAR-3): > 100000 nM (inactive); GI50 (LOX IMVI): > 100000 nM (inactive); GI50 (SF-539): > 100000 nM (inactive); GI50 (SK-MEL-28): > 100000 nM (inactive); GI50 (OVCAR-8): > 100000 nM (inactive); GI50 (UACC-257): > 100000 nM (inactive); GI50 (HCT-116): > 100000 nM (inactive); GI50 (SN12C): > 100000 nM (inactive); GI50 (HCT-15): > 100000 nM

What does the source list for `CC[C@]1(O)C[C@H]2CN(CCc3c([nH]c4ccccc34)[C@@](C(=O)OC)(c3cc4c(cc3OC)N(C)[C@H]3[C@@](O)(C(=O)OC)[C@H](OC(C)=O)[C@]5(CC)C=CCN6CC[C@]43[C@@H]65)C2)C1`?
GI50 (HOP-18): 573 nM (active); GI50 (SF-295): 0.492 nM (active); GI50 (MDA-MB-435): 0.386 nM (active); GI50 (EKVX): 25.9 nM (active); GI50 (HOP-92): 2.27 nM (active); GI50 (NCI-H226): 1.15 nM (active); GI50 (M14): 0.762 nM (active); GI50 (NCI-H460): 0.629 nM (active); GI50 (KM12): 0.493 nM (active); GI50 (XF498): 0.402 nM (active); GI50 (HOP-62): 0.832 nM (active); GI50 (NCI-H522): 0.309 nM (active); GI50 (UACC-62): 0.373 nM (active); GI50 (MDA-MB-231): 0.991 nM (active); GI50 (U-251): 0.715 nM (active); GI50 (SF-268): 0.986 nM (active); GI50 (UO-31): 143 nM (active); GI50 (786-0): 0.964 nM (active); GI50 (BT-549): 1.26 nM (active); GI50 (DMS-273): 0.375 nM (active); GI50 (NCI/ADR-RES): 115 nM (active); GI50 (SK-OV-3): 0.867 nM (active); GI50 (DU-145): 0.395 nM (active); GI50 (LXFL 529): 0.45 nM (active); GI50 (KM-20L2): 0.397 nM (active); GI50 (COLO 205): 0.435 nM (active); GI50 (A498): 2.52 nM (active); GI50 (HCC 2998): 0.959 nM (active); GI50 (SNB-19): 1.15 nM (active); GI50 (MOLT-4): 0.736 nM (active); GI50 (MCF7): 0.45 nM (active); GI50 (K562): 0.508 nM (active); GI50 (DLD-1): 4.33 nM (active); GI50 (RXF 631): 2.62 nM (active); GI50 (SNB-78): 1.73 nM (active); GI50 (IGROV-1): 1.29 nM (active); GI50 (CAKI-1): 7.06 nM (active); GI50 (A549): 1.57 nM (active); GI50 (RPMI-8226): 0.679 nM (active); GI50 (PC-3): 0.412 nM (active); GI50 (SK-MEL-5): 0.354 nM (active); GI50 (SK-MEL-2): 0.762 nM (active); GI50 (CCRF-CEM): 0.641 nM (active); GI50 (ACHN): 8.49 nM (active); GI50 (HT-29): 0.408 nM (active); GI50 (MDA-N): 0.476 nM (active); GI50 (OVCAR-4): 136 nM (active); GI50 (Malme-3M): 0.557 nM (active); GI50 (SR): 0.425 nM (active); GI50 (SW-620): 0.564 nM (active); GI50 (NCI-H23): 0.678 nM (active); GI50 (HL-60): 0.42 nM (active); GI50 (OVCAR-3): 0.38 nM (active); GI50 (LOX IMVI): 0.538 nM (active); GI50 (SF-539): 0.605 nM (active); GI50 (SK-MEL-28): 1.65 nM (active); GI50 (OVCAR-8): 1.29 nM (active); GI50 (HCT-116): 0.481 nM (active); GI50 (SN12C): 1.32 nM (active); GI50 (HCT-15): 24.1 nM
